Measurements: patent US12336996B2, “Drug combination containing TLR7 agonist” (Chia Tai Tianqing Pharmaceutical Group Co., Ltd., priority 2019, dated 2025)

Columns and labels:
HBV [1] = test: AAV mice study: serum HBV DNA copy number by fluorescence quantitative PCR; type: in vivo, C57BL/6 mice; details: for HBV DNA (result in words): over a 42-day treatment period, AAV mice; for HBV DNA replication level in mouse serum (treatment period): rAAV8-1.3HBV mice, i.g., ETV 0.0032 (1 W) & 0.001 (2-6 W) mg/kg qd, TLR7 agonist 20 mg/kg tiw
Protocol: Male C57BL/6 mice (Shanghai Slac Laboratory Animal Co., Ltd.) aged 6-8 weeks were taken, and rAAV8-1.3HBV virus (FivePlus Institute of Molecular Medicine, Beijing) was injected into the C57BL/6 mice via tail veins at a dose of 1×10^11 vg. Blood was collected from the orbit at week 2 and week 4 after the virus was injected. Serum was separated, and HBV DNA copy number in serum were measured to determine whether the model was successfully constructed or not. Mice were randomized according to the HBV DNA copy number into vehicle control group, TLR7 agonist group (20 mg/kg, tiw), entecavir (ETV) group (0.0032 (week 1, 1 W) & 0.001 (week 2-6, 2-6 W) mg/kg, qd), and TLR7 agonist and ETV combination group, each group containing 6 mice. The mice in each group were administered intragastrically for 6 weeks, and the administration was stopped for 3 week. Blood was collected from the orbit at weeks 1, 2, 3, 4, 5 and 6 during the administration period and weeks 1, 2 and 3 during the withdrawal period, and serum was separated. The HBV DNA copy number was determined by fluorescence quantitative PCR.
• i. Vehicle control group; • ii. Monotherapy group: entecavir; • iii. Monotherapy group: TLR7 agonist; • iv. Combination group (combo): TLR7 agonist and entecavir;
The test results were evaluated by Jin equation. The Jin equation is a modified method based on the Burgi method, and is also referred to the probability addition method:
The combination efficacy is calculated according to the following equation: q=EA+B/(EA+EB−EA×EB)
wherein EA denotes the efficacy of drug A monotherapy; EB denotes the efficacy of drug B monotherapy; EA+B denotes the efficacy of the combination of drugs A and B.
The significance of q: 0.85 to 1.15 indicates simple addition; 1.15 to 20 indicates enhancement; greater than 20 indicates significant enhancement; 0.85 to 0.55 indicates antagonism; less than 0.55 indicates significant antagonism. The q value takes the absolute value.

HBV [2] = test: Example 2: clinical study of TLR7 agonist combined with entecavir in chronic hepatitis B patients; type: in vivo, human; details: TLR7 agonist 1.0-1.8 mg once weekly, entecavir 0.5 mg/day, 24 weeks
Protocol: [drawing 54] (2-butoxy-7-(4-(pyrrolidin-1-ylmethyl) benzyl)-5H-pyrrolo[3,2-d]pyrimidin-4-amine); see WO2016023511 for the preparation method. The compound was prepared into tablets with strength of 0.2 mg or 0.5 mg. • Entecavir: commercially available entecavir tablets with strength of 0.5 mg. Commercially available entecavir tablets include, but are not limited to, entecavir dispersible tablets (Runzhong). • Placebo: a placebo for TLR7 agonist. 2. Enrolled Subjects
The subject should meet all of the following criteria: • 1) Male patients or non-pregnant, non-lactating female patients aged 18-65 years (inclusive); • 2) Serum virology: persistent positive serum HBsAg for 6 months or more, or with evidence of chronic hepatitis B for 6 months; • 3) Previously treated patients: historical HBV DNA inhibition less than the lower limit of normal 24 weeks before enrollment, and HBV DNA inhibition defined as <69 IU/mL determined by a Roche reagent during screening; Fibroscan ≤9.0 Kpa (fasting), and ALT≤5×ULN; • 4) Previously untreated patients: HBV DNA >10^5 copies/mL (or >20000 IU/mL) for HBeAg-positive chronic hepatitis B patients or HBV DNA >10^4 copies/mL (or >2000 IU/mL) for HBeAg-negative patients as determined by Roche's Cobas Taqman real-time quantitative PCR test v2.0, with the lower limit of detection being 20 IU/mL; Fibroscan ≤12.4 Kpa (fasting), and 1×ULN≤ALT≤5×ULN. […] 3. […]

[3] = withdrawal period day 49, after 6 weeks of i.g. administration
[4] = withdrawal period day 56, after 6 weeks of i.g. administration
[5] = withdrawal period day 63, after 6 weeks of i.g. administration

| SMILES | HBV DNA (result in words) (HBV [1]) | HBV DNA replication level in mouse serum (treatment period) (HBV [1]; treatment period day 0) [logic lU/mL] | HBV DNA replication level in mouse serum (treatment period) (HBV [1]; treatment period day 7) [logic lU/mL] | HBV DNA replication level in mouse serum (treatment period) (HBV [1]; treatment period day 14) [logic lU/mL] | HBV DNA replication level in mouse serum (treatment period) (HBV [1]; treatment period day 21) [logic lU/mL] | HBV DNA replication level in mouse serum (treatment period) (HBV [1]; treatment period day 28) [logic lU/mL] | HBV DNA replication level in mouse serum (treatment period) (HBV [1]; treatment period day 35) [logic lU/mL] | HBV DNA replication level in mouse serum (treatment period) (HBV [1]; treatment period day 42) [logic lU/mL] | HBV DNA replication level in mouse serum (withdrawal period) (HBV [1]; [3]) [log10 IU/mL] | HBV DNA replication level in mouse serum (withdrawal period) (HBV [1]; [4]) [log10 IU/mL] | HBV DNA replication level in mouse serum (withdrawal period) (HBV [1]; [5]) [log10 IU/mL] | HBV DNA replication (result in words) (HBV [2]) |
| --- | --- | --- | --- | --- | --- | --- | --- | --- | --- | --- | --- | --- |
| CCCCOc1nc(N)c2[nH]cc(Cc3ccc(CN4CCCC4)cc3)c2n1 [TLR7 agonist, 2-butoxy-7-(4-(pyrrolidin-1-ylmethyl)benzyl)-5H-pyrrolo[3,2-d]pyrimidin-4-amine] | significantly reduced | 7.53 ± 0.15 | 6.64 ± 1.33 | 4.55 ± 1.41 | 4.13 ± 0.67 | 3.64 ± 0.21 | 3.61 ± 0.24 | 3.41 ± 0.33 | 4.37 ± 0.48 | 4.86 ± 0.41 | 5.26 ± 0.39 | achieved inhibition |
| C=C1[C@H](CO)[C@@H](O)C[C@@H]1n1cnc2c(=O)[nH]c(N)nc21 [entecavir, 2-amino-9-[(1S,3R,4S)-4-hydroxy-3-hydroxymethyl-2-methylenecyclopentyl]-1,9-dihydro-6H-purin-6-one] | significantly reduced | 7.53 ± 0.15 | 5.27 ± 0.18 | 5.66 ± 0.14 | 5.96 ± 0.28 | 5.34 ± 0.43 | 5.62 ± 0.36 | 6.44 ± 0.46 | 6.97 ± 0.72 | 7.32 ± 0.73 | 7.33 ± 0.80 | inhibitory effects |
